Reference: patent publication US6090802A, “1- Methylcarbapenem derivatives” (Sankyo Company, Limited, priority 1995, dated 2000)
In brackets after ≈: the same amount, converted by molar mass.

Assays:
[1] = system: Staphylococcus aureus 209P; test: Antibacterial activity, agar plate dilution method (MIC); format: cell-based; conditions: Microorganism A: Staphylococcus aureus 209P; read-out: Minimal inhibitory concentration
Experimental: Antibacterial activity was measured by the agar plate dilution method, whereby the minimal inhibitory concentration (μg/ml) against various pathogenic bacteria was determined. In the Table, bacteria A, B and C provided for the test are as follows: A: Staphylococcus aureus […]

[2] = system: Pseudomonas aeruginosa 1001; test: as above; format: cell-based; conditions: Microorganism C: Pseudomonas aeruginosa 1001; read-out: Minimal inhibitory concentration
Experimental: Antibacterial activity was measured by the agar plate dilution method, whereby the minimal inhibitory concentration (μg/ml) against various pathogenic bacteria was determined. In the Table, bacteria A, B and C provided for the test are as follows: C: Pseudomonas aeruginosa 1001

Escherichia coli NIHJ = test: as above; format: cell-based; conditions: Microorganism B: Escherichia coli NIHJ; read-out: Minimal inhibitory concentration
Experimental: Antibacterial activity was measured by the agar plate dilution method, whereby the minimal inhibitory concentration (μg/ml) against various pathogenic bacteria was determined. In the Table, bacteria A, B and C provided for the test are as follows: B: Escherichia coli NIHJ

[3] = in words; background art; cited from earlier work

Row | Structure (SMILES) | MIC [1] [mg/L] | MIC [2] [mg/L] | MIC (Escherichia coli NIHJ) [mg/L] | nephrotoxicity [3]
1 | C[C@@H](O)[C@H]1C(=O)N2C(C(=O)O)=C(S[C@@H]3CN[C@H](C(=O)N4CC[C@H](NC(=O)[C@@H]5CCCN5)C4)C3)[C@H](C)[C@H]12 [Ex. 1, (1R,5S,6S)-6-(1R)-[1-Hydroxyethyl]-1-methyl-2-[(2S,4S)-2-[(3S)-3-(L-prolylamino)pyrrolidin-1-ylcarbonyl]pyrrolidin-4-ylthio]-1-carbapen-2-em-3-carboxylic acid] | ≤ 0.01 | 0.1 (≈ 0.192 µM) | ≤ 0.01 | –
2 | C[C@@H](O)[C@H]1C(=O)N2C(C(=O)O)=C(S[C@@H]3CN[C@H](C(=O)N4CC[C@H](NC(=O)CNC(=N)N)C4)C3)[C@H](C)[C@H]12 [Ex. 8] | ≤ 0.01 | 0.05 (≈ 0.0955 µM) | ≤ 0.01 | –
3 | C[C@@H](O)[C@H]1C(=O)N2C(C(=O)O)=C(S[C@@H]3CN[C@H](C(O)CC(=O)N4CC[C@H](N)C4)C3)[C@H](C)[C@H]12 (stereo partly drawn) [Ex. 12, (1R,5S,6S)-2-[(2S,4S)-2-[1-Hydroxy-2-[(3S)-3-aminopyrrolidin-1-ylcarbonyl]ethyl]-pyrrolidin-4-ylthio]-6-[(1R)-1-hydroxyethyl]-1-methyl-1-carbapen-2-em-3-carboxylic acid] | ≤ 0.01 | 0.2 (≈ 0.427 µM) | 0.02 (≈ 0.0427 µM) | –
4 | C[C@@H](O)[C@H]1C(=O)N2C(C(=O)O)=C(S[C@@H]3CN[C@H](C(=O)N4CC(NC(=O)CCNC(=N)N)C4)C3)[C@H](C)[C@H]12 [Ex. 17, (1R,5S,6S)-2-[(2S,4S)-2-[3-(3-Guanidinopropanoylamino)azetidin-1-ylcarbonyl]-pyrrolidin-4-ylthio]-6-[(1R)-1-hydroxyethyl]-1-methyl-1-carbapen-2-em-3-carboxylic acid] | ≤ 0.01 | 0.05 (≈ 0.0955 µM) | ≤ 0.01 | –
5 | C[C@@H](NC(=N)N)C(=O)N[C@H]1CCN(C(=O)[C@@H]2C[C@H](SC3=C(C(=O)O)N4C(=O)[C@H]([C@@H](C)O)[C@H]4[C@H]3C)CN2)C1 [Ex. 27, (1R,5S,6S)-2-[(2S,4S)-2-[(3S)-3-[(2R)-2-Guanidino-2-methylacetylamino]pyrrolidin-1-ylcarbonyl]pyrrolidin-4-ylthio]-6-[(1R)-1-hydroxyethyl]-1-methyl-1-carbapen-2-em-3-carboxylic acid] | ≤ 0.01 | 0.05 (≈ 0.093 µM) | ≤ 0.01 | –
6 | C[C@@H](O)[C@H]1C(=O)N2C(C(=O)O)=C(S[C@@H]3CN[C@H](C(O)CC(=O)N[C@H]4CCNC4)C3)[C@H](C)[C@H]12 (stereo partly shown) [Ex. 49] | ≤ 0.01 | 0.4 (≈ 0.854 µM) | 0.02 (≈ 0.0427 µM) | –
7 | C[C@@H](O)[C@H]1C(=O)N2C(C(=O)O)=C(S[C@@H]3CN[C@H](C(O)CC(=O)N4CCN(C(=N)N)CC4)C3)[C@H](C)[C@H]12 (stereo partly drawn) [Ex. 51, (1R,5S,6S)-2-[(2S,4S)-2-[2-(4-Guanylpiperazin-1-ylcarbonyl)-1-hydroxyethyl]-pyrrolidin-4-ylthio]-6-[(1R)-1-hydroxyethyl]-1-methyl-1-carbapen-2-em-3-carboxylic acid] | ≤ 0.01 | 0.2 (≈ 0.392 µM) | 0.02 (≈ 0.0392 µM) | –
8 | C[C@@H](O)[C@H]1C(=O)N2C(C(=O)O)=C(S[C@@H]3CN[C@H]([C@H](O)CC(=O)N4CC[C@H](N)C4)C3)[C@H](C)[C@H]12 [Ex. 59, (1R,5S,6S)-2-[(2S,4S)-2-[2-[(3S)-3-Aminopyrrolidin-1-ylcarbonyl]-(1R)-1-hydroxyethyl]pyrrolidin-4-ylthio]-6-[(1R)-1-hydroxyethyl]-1-methyl-1-carbapen-2-em-3-carboxylic acid] | ≤ 0.01 | 0.2 (≈ 0.427 µM) | 0.02 (≈ 0.0427 µM) | –
9 | C[C@@H](O)[C@H]1C(=O)N2C(C(=O)O)=C(S[C@@H]3CN[C@H]([C@@H](O)CC(=O)N4CC[C@H](N)C4)C3)[C@H](C)[C@H]12 [Ex. 60, (1R,5S,6S)-2-[(2S,4S)-2-[2-[(3S)-3-Aminopyrrolidin-1-ylcarbonyl]-(1S)-1-hydroxyethyl]pyrrolidin-4-ylthio]-6-[(1R)-1-hydroxyethyl]-1-methyl-1-carbapen-2-em-3-carboxylic acid] | ≤ 0.01 | 0.4 (≈ 0.854 µM) | 0.02 (≈ 0.0427 µM) | –
10 | C[C@@H](O)[C@H]1C(=O)N2C(C(=O)O)=C(SCCN=CN)C[C@H]12 [Imipenem, imipenem, reference compound] | ≤ 0.01 | 3.1 (≈ 10.4 µM) | 0.05 (≈ 0.167 µM) | exhibits nephrotoxicity
